# Test results: ChEMBL document CHEMBL1201862, “PubChem BioAssay data set” (2004)
# Activity calls are given as the source filed them.
# How the values were obtained:
# [1] = biological target: 72 kDa type IV collagenase (Homo sapiens, UniProt P08253); assay: Dose Response validation of uHTS RPN11 inhibitor hits using a MMP-2 Fluorescence assay.; format: functional
# [2] = biological target: Prothrombin (Bos taurus, UniProt P00735); assay: thrombin protease inhibitors – biochemical, fluorescence polarization, uHTS hits, dose response (AID 602369); format: functional
# [3] = biological target: 26S proteasome non-ATPase regulatory subunit 14 (Homo sapiens, UniProt O00487); assay: inhibition of proteasome subunit RPN11 – biochemical, fluorescence polarization, uHTS hits, confirmation (AID 602368); format: functional
# Sequence of 26S proteasome non-ATPase regulatory subunit 14 (O00487 whole entry): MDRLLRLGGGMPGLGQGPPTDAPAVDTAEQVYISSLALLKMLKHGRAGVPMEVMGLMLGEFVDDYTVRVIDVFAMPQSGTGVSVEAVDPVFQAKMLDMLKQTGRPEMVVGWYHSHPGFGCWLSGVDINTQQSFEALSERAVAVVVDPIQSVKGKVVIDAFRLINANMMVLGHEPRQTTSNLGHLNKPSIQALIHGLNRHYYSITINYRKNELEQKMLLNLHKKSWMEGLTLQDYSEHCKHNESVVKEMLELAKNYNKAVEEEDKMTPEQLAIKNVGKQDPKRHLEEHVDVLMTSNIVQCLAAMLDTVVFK
# [4] = biological target: T1, Alkaline phosphatase, tissue-nonspecific isozyme (Homo sapiens, UniProt P05186); assay: potency against alkaline phosphatase TNAP – biochemical, luminescent, dose response, SAR follow-up (AID 1056)
# T1 sequence (P05186 whole entry): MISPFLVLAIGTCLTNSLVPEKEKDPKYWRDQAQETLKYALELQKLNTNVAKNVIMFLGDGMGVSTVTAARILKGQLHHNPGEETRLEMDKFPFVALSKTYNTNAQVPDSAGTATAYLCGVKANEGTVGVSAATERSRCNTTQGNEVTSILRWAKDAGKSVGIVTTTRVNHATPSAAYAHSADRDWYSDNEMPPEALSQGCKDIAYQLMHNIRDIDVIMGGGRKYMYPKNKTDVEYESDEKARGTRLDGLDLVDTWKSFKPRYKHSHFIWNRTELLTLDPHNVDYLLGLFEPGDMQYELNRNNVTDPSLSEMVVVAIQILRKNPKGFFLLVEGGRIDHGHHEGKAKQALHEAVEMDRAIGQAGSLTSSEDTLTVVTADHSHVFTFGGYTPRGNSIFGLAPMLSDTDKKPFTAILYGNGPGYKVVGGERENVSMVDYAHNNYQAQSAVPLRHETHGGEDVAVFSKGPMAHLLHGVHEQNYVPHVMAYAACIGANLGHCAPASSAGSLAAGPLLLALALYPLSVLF
# [5] = biological target: Glyceraldehyde-3-phosphate dehydrogenase (Homo sapiens, UniProt P04406)
# Sequence of Glyceraldehyde-3-phosphate dehydrogenase (P04406 whole entry): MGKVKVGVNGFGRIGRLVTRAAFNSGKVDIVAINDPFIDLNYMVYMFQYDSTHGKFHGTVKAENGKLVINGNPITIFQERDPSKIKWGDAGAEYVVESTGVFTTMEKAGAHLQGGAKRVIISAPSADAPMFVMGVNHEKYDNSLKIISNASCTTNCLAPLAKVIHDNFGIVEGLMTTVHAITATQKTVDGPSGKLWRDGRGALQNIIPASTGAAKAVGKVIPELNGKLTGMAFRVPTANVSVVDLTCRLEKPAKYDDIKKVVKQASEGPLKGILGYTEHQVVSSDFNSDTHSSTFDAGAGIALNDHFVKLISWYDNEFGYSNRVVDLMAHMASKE
# [6] = biological target: Alkaline phosphatase, placental type (Homo sapiens, UniProt P05187); assay: human placental alkaline phosphatase inhibition – biochemical, luminescence, confirmation (AID 1512); format: functional
# Sequence of Alkaline phosphatase, placental type (P05187 whole entry): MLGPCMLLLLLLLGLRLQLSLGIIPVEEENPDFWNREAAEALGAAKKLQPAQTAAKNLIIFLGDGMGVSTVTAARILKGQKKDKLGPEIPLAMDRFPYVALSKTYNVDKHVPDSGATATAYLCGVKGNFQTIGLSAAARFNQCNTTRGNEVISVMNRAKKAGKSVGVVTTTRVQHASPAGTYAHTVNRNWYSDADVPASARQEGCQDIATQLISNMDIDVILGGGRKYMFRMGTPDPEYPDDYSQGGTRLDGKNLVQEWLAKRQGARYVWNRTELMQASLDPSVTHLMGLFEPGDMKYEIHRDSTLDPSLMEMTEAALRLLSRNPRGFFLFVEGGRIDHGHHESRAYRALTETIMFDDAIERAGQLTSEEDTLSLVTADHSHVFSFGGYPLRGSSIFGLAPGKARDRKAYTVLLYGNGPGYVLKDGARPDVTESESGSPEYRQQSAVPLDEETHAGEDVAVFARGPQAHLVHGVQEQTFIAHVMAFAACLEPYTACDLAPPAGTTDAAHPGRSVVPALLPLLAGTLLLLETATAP
# [7] = biological target: Adenosylmethionine-8-amino-7-oxononanoate aminotransferase (Mycobacterium tuberculosis, UniProt P9WQ81); assay: Mycobacterium tuberculosis BioA enzyme inhibitor Measured in Biochemical System Using Plate Reader - 2163-02_Inhibitor_Dose_CherryPick_Activity.; format: functional, Mycobacterium tuberculosis UT205
# Sequence of Adenosylmethionine-8-amino-7-oxononanoate aminotransferase (P9WQ81 whole entry): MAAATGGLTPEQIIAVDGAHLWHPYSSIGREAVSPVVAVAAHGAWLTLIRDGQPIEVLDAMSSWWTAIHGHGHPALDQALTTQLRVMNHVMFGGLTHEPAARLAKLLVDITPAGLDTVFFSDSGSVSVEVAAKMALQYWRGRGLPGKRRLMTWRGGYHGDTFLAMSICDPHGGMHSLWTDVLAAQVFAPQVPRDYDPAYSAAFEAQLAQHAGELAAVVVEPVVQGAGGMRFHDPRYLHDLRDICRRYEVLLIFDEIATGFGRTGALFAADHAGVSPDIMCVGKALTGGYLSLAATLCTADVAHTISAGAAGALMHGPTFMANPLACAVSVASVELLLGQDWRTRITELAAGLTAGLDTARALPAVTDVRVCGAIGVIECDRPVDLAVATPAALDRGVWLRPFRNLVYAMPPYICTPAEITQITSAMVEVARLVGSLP
# [8] = biological target: T2, Nuclear receptor subfamily 0 group B member 1 (Homo sapiens, UniProt P51843); assay: Luminescence-based cell-based high throughput dose response assay for inhibitors of the orphan nuclear receptor subfamily 0, group B, member 1 (DAX1; NR0B1). [Related pubchem assays (depositor defined):AID504766, AID504790]; format: functional
# T2 sequence (P51843 whole entry): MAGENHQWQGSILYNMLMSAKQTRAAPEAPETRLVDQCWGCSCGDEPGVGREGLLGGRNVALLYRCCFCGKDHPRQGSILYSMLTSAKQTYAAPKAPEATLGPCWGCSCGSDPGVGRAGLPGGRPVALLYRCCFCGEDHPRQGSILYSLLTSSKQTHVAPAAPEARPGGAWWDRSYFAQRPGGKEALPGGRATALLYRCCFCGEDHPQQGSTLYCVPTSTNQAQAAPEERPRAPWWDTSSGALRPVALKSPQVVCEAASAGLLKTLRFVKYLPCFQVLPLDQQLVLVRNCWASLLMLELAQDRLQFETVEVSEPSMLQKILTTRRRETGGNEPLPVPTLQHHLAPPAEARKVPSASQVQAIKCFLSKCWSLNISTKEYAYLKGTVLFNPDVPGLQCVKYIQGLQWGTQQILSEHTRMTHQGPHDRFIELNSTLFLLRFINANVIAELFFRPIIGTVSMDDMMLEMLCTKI
# [9] = system: HEK293; assay: cells; format: functional, cell-based; details: Homo sapiens
# [10] = system: CHO; assay: CHO cell viability loss, potency – luminescence, cytotoxicity control for TLR9-MyD88 binding inhibitor project, dose response (AID 588339); format: functional, cell-based, hamster; details: Cricetulus griseus;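 note: CHO cells stably coexpressing TLR9 and MyD88 fusions from primary screen; compound exposure lasted 48 hours before viability readout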
# [11] = biological target: T3, High affinity choline transporter 1 (Homo sapiens, UniProt Q9GZV3); assay: human choline transporter blockers, potency – cell-based, 5-point CRC, membrane potential dye, dose response (AID 504840); format: functional
# T3 sequence (Q9GZV3 whole entry): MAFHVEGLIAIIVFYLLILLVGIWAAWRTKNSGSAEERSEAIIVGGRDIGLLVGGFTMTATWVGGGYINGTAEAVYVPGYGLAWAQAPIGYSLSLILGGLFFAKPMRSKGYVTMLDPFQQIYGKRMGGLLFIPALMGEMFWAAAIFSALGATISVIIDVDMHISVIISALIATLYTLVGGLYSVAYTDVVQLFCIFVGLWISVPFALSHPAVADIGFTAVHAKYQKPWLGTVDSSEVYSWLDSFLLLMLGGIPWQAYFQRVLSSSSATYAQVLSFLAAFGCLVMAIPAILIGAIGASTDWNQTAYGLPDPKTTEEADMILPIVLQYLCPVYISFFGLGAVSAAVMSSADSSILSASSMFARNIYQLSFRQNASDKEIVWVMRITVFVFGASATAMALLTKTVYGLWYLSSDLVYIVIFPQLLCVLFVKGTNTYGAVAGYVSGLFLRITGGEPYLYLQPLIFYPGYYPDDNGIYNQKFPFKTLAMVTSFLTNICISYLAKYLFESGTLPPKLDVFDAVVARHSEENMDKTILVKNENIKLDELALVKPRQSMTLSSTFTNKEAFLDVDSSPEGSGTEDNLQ
# [12] = biological target: T3, High affinity choline transporter 1; assay: human choline transporter blockers, potency – cell-based, 10-point CRC, membrane potential dye, dose response (AID 588401); format: functional;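 note: membrane potential dye fluorescence of choline-evoked depolarization via CHT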
# [13] = biological target: T4, Hexokinase (Trypanosoma brucei, UniProt Q38C41); assay: Confirmation assay for inhibitors of Trypanosoma brucei hexokinase 1-Analogue-first series. [Related pubchem assays (depositor defined):AID1430, AID1632, AID2516, AID2560, AID2579, AID2600, AID449725, AID492951]; format: functional
# T4 sequence (Q38C41 whole entry): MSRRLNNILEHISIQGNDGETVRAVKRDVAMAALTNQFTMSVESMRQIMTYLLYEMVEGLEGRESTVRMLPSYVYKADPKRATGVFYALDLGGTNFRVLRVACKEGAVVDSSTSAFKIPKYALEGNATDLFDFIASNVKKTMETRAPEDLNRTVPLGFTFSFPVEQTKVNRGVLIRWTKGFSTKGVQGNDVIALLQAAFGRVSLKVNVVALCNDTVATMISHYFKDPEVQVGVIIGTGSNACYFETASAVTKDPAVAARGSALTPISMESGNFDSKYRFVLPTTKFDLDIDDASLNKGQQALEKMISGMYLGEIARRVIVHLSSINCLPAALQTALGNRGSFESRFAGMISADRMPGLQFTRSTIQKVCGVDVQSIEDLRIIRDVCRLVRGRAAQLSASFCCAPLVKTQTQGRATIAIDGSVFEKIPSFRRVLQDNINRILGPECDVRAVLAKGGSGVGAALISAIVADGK
# [14] = biological target: T5, Heat shock factor protein 1 (Mus musculus, UniProt P38532); assay: enhancement of HSF1-driven luciferase signal – cell-based, NIH3T3, luminescence, dose retest, confirmation (AID 435004); format: functional;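 note: stress induced by proteasome inhibitor MG132 added 30 min after compound; luciferase reporter driven by HSF1 response element in NIH3T3 cells; actives raise luminescence as potentiators of the MG132 stress response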
# T5 sequence (P38532 whole entry): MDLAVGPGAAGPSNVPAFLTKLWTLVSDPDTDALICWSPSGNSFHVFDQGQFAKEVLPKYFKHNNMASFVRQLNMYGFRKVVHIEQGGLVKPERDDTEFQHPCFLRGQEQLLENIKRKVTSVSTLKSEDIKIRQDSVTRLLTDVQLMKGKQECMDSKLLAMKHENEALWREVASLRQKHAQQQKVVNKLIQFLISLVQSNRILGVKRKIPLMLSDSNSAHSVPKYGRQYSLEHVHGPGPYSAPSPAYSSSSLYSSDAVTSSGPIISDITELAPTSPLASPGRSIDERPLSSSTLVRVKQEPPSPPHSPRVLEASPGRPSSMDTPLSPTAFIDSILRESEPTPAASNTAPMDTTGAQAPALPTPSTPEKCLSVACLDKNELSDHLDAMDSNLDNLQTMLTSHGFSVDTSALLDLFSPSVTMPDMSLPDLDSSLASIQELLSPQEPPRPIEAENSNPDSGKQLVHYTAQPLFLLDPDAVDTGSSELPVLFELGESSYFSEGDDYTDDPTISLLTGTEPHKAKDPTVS
# [15] = system: H9c2; assay: cells; format: functional, cell-based; details: Rattus norvegicus, H9c2, Myocardium;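 note: confirmatory concentration-response retest of ultra-high-throughput screening hits for modulation of myocardial damage; cell death induced by hydrogen peroxide oxidative stress; compound pretreatment for 60 min then peroxide exposure for 2 h; potency is for protecting the cells against peroxide damage rather than for killing them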
# [16] = biological target: Ras and Rab interactor 1/Tyrosine-protein kinase ABL1 (Homo sapiens, UniProt P00519+Q13671); format: functional;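 note: biochemical TR-FRET dose-response test measuring inhibition of binding between Rin1 and Abl proteins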
# Sequence of Ras and Rab interactor 1/Tyrosine-protein kinase ABL1 (P00519 whole entry): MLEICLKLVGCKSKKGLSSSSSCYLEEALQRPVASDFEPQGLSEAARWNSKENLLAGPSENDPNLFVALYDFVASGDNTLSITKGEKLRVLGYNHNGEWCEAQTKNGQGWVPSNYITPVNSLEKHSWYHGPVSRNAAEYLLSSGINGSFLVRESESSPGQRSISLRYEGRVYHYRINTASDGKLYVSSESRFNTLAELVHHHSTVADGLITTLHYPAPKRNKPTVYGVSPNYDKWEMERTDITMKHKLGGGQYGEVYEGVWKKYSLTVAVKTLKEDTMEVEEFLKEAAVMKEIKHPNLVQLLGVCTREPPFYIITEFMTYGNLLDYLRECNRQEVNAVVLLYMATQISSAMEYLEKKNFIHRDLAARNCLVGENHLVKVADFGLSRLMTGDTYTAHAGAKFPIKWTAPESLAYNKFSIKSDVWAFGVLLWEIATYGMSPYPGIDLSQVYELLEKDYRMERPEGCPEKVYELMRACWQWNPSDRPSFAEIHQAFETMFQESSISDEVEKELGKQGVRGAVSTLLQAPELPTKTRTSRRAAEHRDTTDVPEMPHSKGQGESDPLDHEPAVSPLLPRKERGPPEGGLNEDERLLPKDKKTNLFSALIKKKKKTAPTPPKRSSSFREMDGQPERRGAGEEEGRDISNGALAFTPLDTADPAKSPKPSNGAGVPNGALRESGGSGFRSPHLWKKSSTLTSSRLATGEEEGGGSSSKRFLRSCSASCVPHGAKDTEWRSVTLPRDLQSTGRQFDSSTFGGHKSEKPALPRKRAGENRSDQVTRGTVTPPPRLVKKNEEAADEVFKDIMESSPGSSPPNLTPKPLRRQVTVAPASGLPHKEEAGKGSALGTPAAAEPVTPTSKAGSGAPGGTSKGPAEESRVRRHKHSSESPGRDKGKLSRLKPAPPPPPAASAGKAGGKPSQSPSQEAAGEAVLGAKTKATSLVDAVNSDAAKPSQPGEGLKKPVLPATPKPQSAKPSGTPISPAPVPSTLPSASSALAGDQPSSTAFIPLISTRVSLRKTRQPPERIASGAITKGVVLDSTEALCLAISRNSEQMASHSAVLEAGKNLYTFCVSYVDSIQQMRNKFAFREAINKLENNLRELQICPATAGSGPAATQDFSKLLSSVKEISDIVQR
# Sequence of Ras and Rab interactor 1/Tyrosine-protein kinase ABL1 (Q13671 whole entry): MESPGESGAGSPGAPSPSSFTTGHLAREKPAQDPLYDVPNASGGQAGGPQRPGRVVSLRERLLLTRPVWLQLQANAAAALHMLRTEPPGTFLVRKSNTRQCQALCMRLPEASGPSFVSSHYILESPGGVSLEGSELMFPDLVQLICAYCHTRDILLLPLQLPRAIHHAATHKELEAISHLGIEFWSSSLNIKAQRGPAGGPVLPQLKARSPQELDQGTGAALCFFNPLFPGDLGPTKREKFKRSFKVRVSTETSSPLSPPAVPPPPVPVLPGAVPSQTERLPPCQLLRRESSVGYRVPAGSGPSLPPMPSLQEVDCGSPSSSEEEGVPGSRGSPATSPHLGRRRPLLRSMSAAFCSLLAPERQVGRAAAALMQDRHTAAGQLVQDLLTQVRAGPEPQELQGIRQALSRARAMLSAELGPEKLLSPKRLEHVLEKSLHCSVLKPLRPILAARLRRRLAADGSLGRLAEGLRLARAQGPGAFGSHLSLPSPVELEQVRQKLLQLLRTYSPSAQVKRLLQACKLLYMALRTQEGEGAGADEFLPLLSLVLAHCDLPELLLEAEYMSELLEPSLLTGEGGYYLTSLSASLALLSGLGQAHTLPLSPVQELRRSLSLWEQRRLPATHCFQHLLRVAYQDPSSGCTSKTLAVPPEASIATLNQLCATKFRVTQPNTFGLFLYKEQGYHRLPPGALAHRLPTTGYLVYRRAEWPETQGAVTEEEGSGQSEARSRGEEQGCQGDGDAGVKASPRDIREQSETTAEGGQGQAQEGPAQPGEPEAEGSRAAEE
# [17] = biological target: T6, Coagulation factor XII (Homo sapiens, UniProt P00748); format: functional;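 note: activated factor XIIa alpha cleaving a fluorogenic AMC peptide substrate; inhibitor potency from loss of enzyme activity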
# T6 sequence (P00748 whole entry): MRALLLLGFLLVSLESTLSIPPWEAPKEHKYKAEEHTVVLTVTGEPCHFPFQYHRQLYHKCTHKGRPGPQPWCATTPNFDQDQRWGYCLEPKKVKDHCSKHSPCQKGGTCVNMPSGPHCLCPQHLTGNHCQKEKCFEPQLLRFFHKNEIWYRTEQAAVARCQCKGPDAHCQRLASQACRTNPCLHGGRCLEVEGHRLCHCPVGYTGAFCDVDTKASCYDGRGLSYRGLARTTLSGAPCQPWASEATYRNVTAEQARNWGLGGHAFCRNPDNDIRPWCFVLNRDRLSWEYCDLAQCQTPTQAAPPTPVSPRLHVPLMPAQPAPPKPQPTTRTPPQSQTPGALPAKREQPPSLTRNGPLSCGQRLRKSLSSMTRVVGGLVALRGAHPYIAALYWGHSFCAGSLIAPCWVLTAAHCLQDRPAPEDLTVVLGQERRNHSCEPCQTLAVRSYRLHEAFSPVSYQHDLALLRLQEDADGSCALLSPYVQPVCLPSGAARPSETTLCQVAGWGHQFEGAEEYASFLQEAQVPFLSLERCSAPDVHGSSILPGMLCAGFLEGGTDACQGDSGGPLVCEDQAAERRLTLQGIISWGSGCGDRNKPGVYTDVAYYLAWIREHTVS
# [18] = biological target: Voltage-dependent T-type calcium channel subunit alpha-1H (Homo sapiens, UniProt O95180); format: functional;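 note: channel activity triggered by adding a high calcium stimulation buffer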
# [19] = system: HeLa; assay: ATP-based viability loss in HeLa cells – cell-based, CellTiter-Glo luminescence, cherry-pick samples, cytotoxicity control for MITF activator project, dose response (AID 540259); format: functional; details: Homo sapiens
# [20] = biological target: Cytochrome P450 2D6 (Homo sapiens, UniProt P10635);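 note: CYP2D6 member of a cytochrome P450 panel assay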
# Sequence of Cytochrome P450 2D6 (P10635 whole entry): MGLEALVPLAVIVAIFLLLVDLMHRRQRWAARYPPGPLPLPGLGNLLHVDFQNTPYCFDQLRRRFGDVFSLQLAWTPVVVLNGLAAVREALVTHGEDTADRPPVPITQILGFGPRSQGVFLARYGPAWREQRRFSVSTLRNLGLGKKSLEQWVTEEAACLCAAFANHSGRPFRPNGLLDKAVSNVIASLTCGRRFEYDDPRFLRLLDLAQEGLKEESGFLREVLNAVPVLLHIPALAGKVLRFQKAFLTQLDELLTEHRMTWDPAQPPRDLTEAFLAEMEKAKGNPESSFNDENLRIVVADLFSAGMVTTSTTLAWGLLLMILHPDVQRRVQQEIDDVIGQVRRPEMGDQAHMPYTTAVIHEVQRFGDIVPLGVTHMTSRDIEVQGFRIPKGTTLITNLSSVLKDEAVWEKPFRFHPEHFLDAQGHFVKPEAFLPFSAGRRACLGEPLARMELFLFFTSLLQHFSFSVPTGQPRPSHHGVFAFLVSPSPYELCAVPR
# [21] = biological target: T7, Mannose-6-phosphate isomerase (Homo sapiens, UniProt P34949); assay: phosphomannose isomerase inhibition – biochemical, fluorescence intensity, confirmation (AID 1535)
# T7 sequence (P34949 whole entry): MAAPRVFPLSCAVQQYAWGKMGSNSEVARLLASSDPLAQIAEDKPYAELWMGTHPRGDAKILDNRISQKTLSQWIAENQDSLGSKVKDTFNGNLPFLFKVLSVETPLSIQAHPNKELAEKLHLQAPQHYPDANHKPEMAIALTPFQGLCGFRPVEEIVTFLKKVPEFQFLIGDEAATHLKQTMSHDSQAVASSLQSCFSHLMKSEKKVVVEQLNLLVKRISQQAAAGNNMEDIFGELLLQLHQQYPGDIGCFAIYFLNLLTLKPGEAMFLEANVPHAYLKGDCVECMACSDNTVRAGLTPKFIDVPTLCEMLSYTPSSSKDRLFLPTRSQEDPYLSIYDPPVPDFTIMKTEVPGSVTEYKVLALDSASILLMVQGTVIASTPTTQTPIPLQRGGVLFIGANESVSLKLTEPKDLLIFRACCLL
# Sequence of 72 kDa type IV collagenase (P08253 whole entry): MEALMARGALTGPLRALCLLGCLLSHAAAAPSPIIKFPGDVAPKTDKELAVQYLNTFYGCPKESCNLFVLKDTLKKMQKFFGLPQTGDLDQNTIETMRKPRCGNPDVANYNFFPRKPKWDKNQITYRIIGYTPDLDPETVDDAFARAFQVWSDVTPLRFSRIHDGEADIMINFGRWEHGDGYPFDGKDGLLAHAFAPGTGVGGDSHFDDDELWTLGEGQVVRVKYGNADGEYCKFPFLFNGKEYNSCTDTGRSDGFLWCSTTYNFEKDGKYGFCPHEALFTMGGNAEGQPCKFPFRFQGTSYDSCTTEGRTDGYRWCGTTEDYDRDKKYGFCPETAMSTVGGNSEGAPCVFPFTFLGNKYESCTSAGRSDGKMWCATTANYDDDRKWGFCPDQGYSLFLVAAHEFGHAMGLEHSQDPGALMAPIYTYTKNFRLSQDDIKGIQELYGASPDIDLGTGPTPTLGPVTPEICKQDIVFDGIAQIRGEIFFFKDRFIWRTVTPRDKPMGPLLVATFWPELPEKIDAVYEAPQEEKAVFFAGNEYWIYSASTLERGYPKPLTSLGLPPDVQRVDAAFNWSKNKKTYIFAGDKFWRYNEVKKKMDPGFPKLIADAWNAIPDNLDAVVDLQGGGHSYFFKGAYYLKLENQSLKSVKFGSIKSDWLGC
compound,measurement,setting,value
COC(=O)c1ccc(N2NC(=O)/C(=C/c3cc(OC)c(O)c(OC)c3)C2=O)cc1,IC50,[1],81.6 µM (active)
same,IC50,[2],27 µM (active)
same,IC50,[3],18.5 µM (active)
O=C(O)c1cc(-c2cc(F)c(Cl)cc2Cl)n[nH]1,IC50,[4],1.09 µM (active)
same,IC50,[5],> 100 µM (not active)
same,IC50,[6],> 100 µM (inactive)
O=C1CSC(=S)N1N=Cc1ccc(Cl)s1,IC50,[1],> 100 µM (inactive)
same,IC50,[2],27.1 µM (active)
same,IC50,[3],59.4 µM (active)
COc1cc(-c2nnc(S)n2C(C)c2ccccc2)cc(OC)c1OC (configuration not stated),AC50,[7],5.84 µM (active)
O=C(COC(=O)c1[nH]nc2ccccc12)Nc1ccccc1,IC50,[8],> 67.5 µM (inactive)
same,IC50,[9],> 67.5 µM (inactive)
O=C(NCc1cccc(C(F)(F)F)c1)c1cccc2c1C(=O)c1ccc(N3CCC(Cc4ccccc4)CC3)cc1S2(=O)=O,IC50,[10],> 49.8 µM (inactive)
C=CCn1c(SCC(=O)c2ccc(O)c(O)c2)nnc1-c1ccccc1,IC50,[4],19.5 µM (active)
same,IC50,[6],2.53 µM (active)
CCSc1nnc(NC(=O)C(C)(C(F)(F)F)C(F)(F)F)s1,IC50,[11],3.47 µM (active)
same,IC50,[12],2.82 µM (active)
COc1cccc(C(=O)Nc2cc(Cl)ccc2C(=O)O)c1,IC50,[13],17.9 µM (active)
O=c1[nH]n(CC2COC3(CCCCC3)O2)c(=O)c2ccccc12 (configuration not stated),EC50,[14],79 µM (active)
same,IC50,[15],> 79 µM (inactive)
same,IC50,[16],12.5 µM (inactive)
C#CCOc1nc(Nc2cccc([N+](=O)[O-])c2)nc(OCC#C)n1,IC50,[17],> 50 µM (inactive)
same,IC50,[15],> 79 µM (inactive)
O=C(Cn1nnc(-c2ccccc2)n1)OCc1csc(-c2ccccc2)n1,IC50,[17],> 50 µM (inactive)
CCCCC(=O)C1CCN(Cc2ccccc2)CC1,IC50,[16],19.4 µM (inactive)
Cc1csc(NC(=O)Cc2c[nH]c3ccccc23)n1,IC50,[17],> 50 µM (inactive)
same,EC50,[18],9.34 µM (active)
same,AC50,[19],320 µM (active)
same,AC50,[20],22.4 µM (inconclusive)
Cc1ccccc1-n1nc(CSc2nc3ccccc3[nH]2)c(-c2ccccc2)c1N,IC50,[6],> 100 µM (inactive)
Clc1ccnc(/N=c2\ssnc2Cl)c1,IC50,[21],> 100 µM (inactive)
COc1ccc(-c2cc(C(=O)O)[nH]n2)c(OC)c1,IC50,[4],38.2 µM (active)
same,IC50,[5],> 100 µM (not active)
COC(=O)c1ccc(Cl)cc1NC(=O)c1ccc(Cl)cc1,IC50,[13],> 25 µM (inactive)
Cc1cc(C)n2nc(C(=O)Nc3cccnc3)nc2n1,AC50,[7],4.85 µM (active)
COc1ccc(C(=O)C[n+]2cccc(Br)c2)cc1,IC50,[11],4.21 µM (active)
same,IC50,[12],1.19 µM (active)
